Consider one compound from article PMC9382192, “Combined treatment with epigenetic agents enhances anti-tumor activity of MAGE-D4 peptide-specific T cells by upregulating the MAGE-D4 expression in glioma” (Frontiers in Oncology, 2022).

For one assay, the system named is MAGE-D4. As to the kind of experiment: MAGE-D4 expression (qRT-PCR, Western blot) in U87. The assay is classed as cell-based, human. To be noted: U87, compared to the control (0.09% DMSO); 1 μM TSA 24 h. The procedure: (§1) The human glioma cell lines (U87-MG and U251) were obtained from the Cell Bank of Type Culture Collection of the Chinese Academy of Science (Shanghai, China). […] A3656), valproic acid (VPA, CAS No. 99-66-1), and trichostatin A (TSA, CAS No. 58880-19-6) were purchased from Sigma-Aldrich Corporation (St. Louis, MO, USA). DAC and TSA were dissolved in DMSO to a concentration of 10 mM. Aliquots were stored at -80°C and diluted with media before being used. Drug treatments were divided into seven groups: (1) DAC group: cells were cultured in medium on the presence of 1 μM DAC for 120 h; (2) VPA group: cells were grown in medium containing 1 mM VPA for 120 h; (3) TSA group: cells were cultured in medium supplemented with 1 μM TSA for 24 h; (4) D + V group: cells were cultured with 1 μM DAC and 1 mM VPA for 120 h; (5) D + T group: cells were cultured with 1 μM DAC for 120 h, followed by 1 μM TSA for 24 h; (6) Control group: cells were cultured with 0.09% DMSO, which is the highest concentration of DMSO used in this study in consideration of the potential toxicity of DMSO to living cells. […] Relative intensities of the bands were normalized with GAPDH and analyzed by ImageJ (NIH, Maryland, USA).

The test system of the next assay is HLA-A2. As to the kind of experiment: HLA-A2 expression in U87. The assay is classed as cell-based, human. To be noted: TSA 1 μM 24 h. The procedure:
as §1, with “The cells” for “Relative intensities of the bands”, “then harvested, washed” for “normalized”, “PBS buffer three times,” for “GAPDH”, “a FACScan flow cytometer (BD Biosciences, Franklin Lakes, NJ, USA) using BD AccuriTM C6 Software (BD Biosciences).” for “ImageJ (NIH, Maryland, USA).”

For `CC(/C=C/C(=O)NO)=C\[C@@H](C)C(=O)c1ccc(N(C)C)cc1` [TSA, trichostatin A], the “MAGE-D4 mRNA and protein expression” value with MAGE-D4 is listed as “higher”. In addition, in the assay on HLA-A2, the HLA-A2 levels result was “elevated HLA-A2 levels with statistical significance”.
